Entries after “also recorded” stand apart in the source; their conditions may differ. Blank lines part the entries; values can stand above or below the compound they belong to.
What was measured:
[1] = cited from earlier work
[2] = free form; cited from earlier work
fungal infections = details: cited from earlier work
[3] = Description: The MLVs which formed were diluted, concentrated by ultrafiltration, and extruded successively through 0.4 and 0.2 micron polycarbonate membranes, as in Example II.
Liposomes were prepared from mixture #1 lipids and 3.5 mole percent AMB, with hydration in either PBS, or in a Tris--HCl buffer containing 5% w/v of one of the following sugars: glucose, mannitol, trehalose, sucrose, lactose, or maltodextrin. The MLVs formed on hydration with the selected aqueous medium were extruded successively through 0.4 and 0.2 micron polycarbonate membranes, diluted with the selected medium, and concentrated to the original volume, according to Example I. The liposome suspensions were frozen against a dry ice/isopropanol mixture and lyophilized at a pressure of about 15 mTorr. The lyophilized material was stored under nitrogen at refrigerator temperature until used, typically at least about 12 hours.
Following storage, each of the lyophilized liposome preparations was resuspended to its prelyophilization volume by addition of distilled water. The samples were agitated briefly to facilitate resuspension, and resuspended samples were examined for liposome size distribution, as above.

Structure (SMILES): C[C@@H]1[C@H](O)[C@@H](C)/C=C/C=C/C=C/C=C/C=C/C=C/C=C/[C@H](O[C@@H]2O[C@H](C)[C@@H](O)[C@H](N)[C@@H]2O)C[C@@H]2O[C@](O)(C[C@@H](O)C[C@@H](O)[C@H](O)CC[C@@H](O)C[C@@H](O)CC(=O)O[C@H]1C)C[C@H](O)[C@H]2C(=O)O [AMB, Amphotericin B]
LD50 ([1]; earlier studies (references 2-12)): 2 to 3 mg/kg
side effects of free AMB [2]: side effects resulting from red blood cell disruption are observed initially, followed by more serious cardiotoxicity effects; also recorded: Renal toxicity
antifungal activity, in words (fungal infections): effective antifungal agent

Structure (SMILES): CC(C)[C@@H](C)/C=C/[C@@H](C)[C@H]1CC[C@H]2C3=CC=C4C[C@@H](O)CC[C@]4(C)[C@H]3CC[C@]12C [Ergosterol]
protective effect in liposomes ([1]; compared with cholesterol (reference 12)): greater protective effect than cholesterol in liposomes

size stabilization on dehydration and rehydration [3]: good size stabilization
Structure (SMILES): O=C[C@H](O)[C@@H](O)[C@H](O)[C@H](O)CO [glucose]

size stabilization on dehydration and rehydration [3]: good size stabilization
Structure (SMILES): OC[C@H]1O[C@@](CO)(O[C@H]2O[C@H](CO)[C@@H](O)[C@H](O)[C@H]2O)[C@@H](O)[C@@H]1O [sucrose]

Source: patent publication US4766046A, “Stabilized liposome/amphotericin composition and method” (priority 1985, dated 1988)
